Earlier results as cited in patent US20050032782A1, “Treatment of chronic pain associated with drug or radiation therapy” (Cypress Bioscience, Inc., priority 2003, published 2005).

Target: NMDA receptor
Conditions: reported by Shuto et al.; read-out: IC50 value, NMDA receptor antagonistic properties

For `CCN(CC)C(=O)C1(c2ccccc2)CC1CN` (stereo not shown) [milnacipran], the IC50 is listed as roughly 6.3 µM.
